Type in all cases: biochemical
For experiment [1], the target named is Human recombinant full length HDAC6 (Homo sapiens (Human), UniProt Q9UBN7). Put plainly: Test 4: HDAC6 assay. Conditions: Test 4; substrate 5 μM acetyl-Gly-Ala-Lys(acetyl)-AMC. Summed up: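 Baculovirus-expressed full-length recombinant human HDAC6 with 5 μM acetyl-Gly-Ala-Lys(acetyl)-AMC substrate, developed with trypsin 15 min at room temperature.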
Experiment [2] addresses Human recombinant full length HDAC1 (Homo sapiens (Human), UniProt Q13547). Put plainly: Test 3: HDAC1 assay. Conditions: substrate 5 μM acetyl-Gly-Ala-Lys(acetyl)-AMC. An outline of the steps:
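Baculovirus-expressed full-length human HDAC1 with 5 μM acetyl-Gly-Ala-Lys(acetyl)-AMC substrate, developed with trypsin 15 min at room temperature.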

The target in experiment [3] is Human recombinant HDAC4 (Homo sapiens (Human), UniProt P56524). In words: Test 2: HDAC4 assay (fluorogenic substrate, 5 μM acetyl-Gly-Ala-Lys(ε-trifluoroacetyl)-AMC). Conditions: Test 2 (values without asterisk). An outline of the steps:
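After the reaction, bovine trypsin (300 nM solution) was added for 15 min at RT to develop the signal; fluorescence read at 360/450 nm. No-enzyme background subtracted; IC50 from 4-parameter logistic fit of dose-response curves.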

Human recombinant HDAC4, sequence (P56524 2-1084): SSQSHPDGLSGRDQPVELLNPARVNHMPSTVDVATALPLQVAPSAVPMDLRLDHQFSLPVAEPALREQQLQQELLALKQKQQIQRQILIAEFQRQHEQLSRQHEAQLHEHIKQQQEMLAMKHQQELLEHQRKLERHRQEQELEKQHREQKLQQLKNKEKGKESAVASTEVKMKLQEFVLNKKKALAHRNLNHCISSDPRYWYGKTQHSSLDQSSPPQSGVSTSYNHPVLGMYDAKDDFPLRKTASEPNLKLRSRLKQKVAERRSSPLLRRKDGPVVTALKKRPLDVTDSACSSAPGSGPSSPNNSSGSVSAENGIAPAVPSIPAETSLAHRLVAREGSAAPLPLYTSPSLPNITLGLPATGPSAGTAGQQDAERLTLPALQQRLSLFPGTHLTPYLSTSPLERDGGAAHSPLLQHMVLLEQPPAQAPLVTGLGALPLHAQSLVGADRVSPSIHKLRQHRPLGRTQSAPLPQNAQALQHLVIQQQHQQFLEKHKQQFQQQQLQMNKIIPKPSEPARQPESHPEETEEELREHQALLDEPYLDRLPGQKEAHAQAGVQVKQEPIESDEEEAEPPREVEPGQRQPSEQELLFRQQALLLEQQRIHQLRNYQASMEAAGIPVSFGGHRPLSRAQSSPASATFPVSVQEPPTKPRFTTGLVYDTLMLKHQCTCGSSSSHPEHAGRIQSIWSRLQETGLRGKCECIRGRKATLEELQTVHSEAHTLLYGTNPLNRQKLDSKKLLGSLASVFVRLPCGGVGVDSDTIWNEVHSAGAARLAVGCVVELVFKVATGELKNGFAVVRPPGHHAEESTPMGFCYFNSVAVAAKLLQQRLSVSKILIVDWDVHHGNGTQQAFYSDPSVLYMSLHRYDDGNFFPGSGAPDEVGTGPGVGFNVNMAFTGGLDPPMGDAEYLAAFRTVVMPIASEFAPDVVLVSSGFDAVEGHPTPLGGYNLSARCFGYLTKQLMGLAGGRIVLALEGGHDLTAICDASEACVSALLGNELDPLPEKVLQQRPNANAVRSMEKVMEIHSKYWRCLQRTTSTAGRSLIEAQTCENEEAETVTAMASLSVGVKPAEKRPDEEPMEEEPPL
Human recombinant full length HDAC1, sequence (Q13547 whole entry): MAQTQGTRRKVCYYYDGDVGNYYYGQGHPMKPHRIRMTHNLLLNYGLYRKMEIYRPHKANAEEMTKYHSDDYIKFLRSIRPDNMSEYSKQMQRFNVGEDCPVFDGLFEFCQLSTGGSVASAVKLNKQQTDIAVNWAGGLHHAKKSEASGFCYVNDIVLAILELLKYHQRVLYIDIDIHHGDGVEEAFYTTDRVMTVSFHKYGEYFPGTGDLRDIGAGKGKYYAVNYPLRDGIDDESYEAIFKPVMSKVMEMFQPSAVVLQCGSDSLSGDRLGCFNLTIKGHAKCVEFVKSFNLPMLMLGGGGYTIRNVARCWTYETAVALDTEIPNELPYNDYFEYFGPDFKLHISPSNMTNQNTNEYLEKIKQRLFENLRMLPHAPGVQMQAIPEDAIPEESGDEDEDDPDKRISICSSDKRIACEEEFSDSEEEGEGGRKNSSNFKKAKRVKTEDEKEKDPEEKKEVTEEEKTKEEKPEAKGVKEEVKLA
Human recombinant full length HDAC6, sequence (Q9UBN7 whole entry): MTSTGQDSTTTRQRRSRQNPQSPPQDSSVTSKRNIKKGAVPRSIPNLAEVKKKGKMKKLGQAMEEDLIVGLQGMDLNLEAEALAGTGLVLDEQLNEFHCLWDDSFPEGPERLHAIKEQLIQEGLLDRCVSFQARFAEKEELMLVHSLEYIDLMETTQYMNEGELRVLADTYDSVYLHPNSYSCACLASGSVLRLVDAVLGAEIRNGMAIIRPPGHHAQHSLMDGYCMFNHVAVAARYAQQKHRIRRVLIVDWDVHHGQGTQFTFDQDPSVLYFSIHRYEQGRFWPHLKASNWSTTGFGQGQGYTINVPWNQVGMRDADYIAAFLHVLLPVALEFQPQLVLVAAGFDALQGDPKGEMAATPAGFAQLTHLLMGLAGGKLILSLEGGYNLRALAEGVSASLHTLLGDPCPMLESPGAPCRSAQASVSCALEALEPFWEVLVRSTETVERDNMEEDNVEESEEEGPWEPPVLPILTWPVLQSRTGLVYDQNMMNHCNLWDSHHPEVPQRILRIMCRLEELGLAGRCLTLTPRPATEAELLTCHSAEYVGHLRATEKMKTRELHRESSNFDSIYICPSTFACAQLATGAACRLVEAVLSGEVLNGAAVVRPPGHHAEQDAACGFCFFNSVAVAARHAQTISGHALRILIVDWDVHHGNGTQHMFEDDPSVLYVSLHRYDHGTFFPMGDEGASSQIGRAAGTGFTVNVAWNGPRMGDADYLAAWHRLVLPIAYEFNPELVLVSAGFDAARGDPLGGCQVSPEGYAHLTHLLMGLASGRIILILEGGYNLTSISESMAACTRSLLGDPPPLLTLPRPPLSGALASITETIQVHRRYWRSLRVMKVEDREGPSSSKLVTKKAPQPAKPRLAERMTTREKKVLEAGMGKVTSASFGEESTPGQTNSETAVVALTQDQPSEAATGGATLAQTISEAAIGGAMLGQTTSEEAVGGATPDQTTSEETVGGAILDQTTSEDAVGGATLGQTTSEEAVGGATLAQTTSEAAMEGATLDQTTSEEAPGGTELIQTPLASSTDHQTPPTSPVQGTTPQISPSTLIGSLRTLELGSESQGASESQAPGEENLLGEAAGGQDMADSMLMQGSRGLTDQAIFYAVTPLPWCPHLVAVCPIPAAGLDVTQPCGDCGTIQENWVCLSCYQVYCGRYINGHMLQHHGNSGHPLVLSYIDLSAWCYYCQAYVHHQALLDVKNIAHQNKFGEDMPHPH

Broadly, the IC50 is the concentration at which inhibition is half-maximal. In the case of `CN1CCN(C(=O)c2ccc(-c3noc(C(F)(F)F)n3)cc2)CC1` [Example 36, (4-methylpiperazin-1-yl)(4-(5-(trifluoromethyl)-1,2,4-oxadiazol-3-yl)phenvyl)methanone], the 50% inhibitory concentration (IC50) was over 10 µM in experiment [1], over 10 µM in experiment [2] and 2700 nM in experiment [3].
Consider `CC(C)N(C)C(=O)c1ccc(-c2noc(C(F)(F)F)n2)cc1` [Example 24, N-isopropyl-N-methyl-4-(5-(trifluoromethyl)-1,2,4-oxadiazol-3-yl)benzamide], for which the values for the IC50 in experiment [1], in experiment [2] and in experiment [3] were over 10 µM, over 10 µM and 770 nM, respectively.
With `O=C(N[C@@H]1CCNC1)c1ccc(-c2noc(C(F)(F)F)n2)cc1` [Example 86, (R)—N-(pyyrrolidin-3-yl)-4-(5-(trifluoromethyl)-1,2,4-oxadiazol-3-yl)benzamide], the half-inhibitory concentration (IC50) in experiment [1] was over 10 µM; in experiment [2] it was over 10 µM; in experiment [3] it was 26 nM.
As to `O=S(=O)(N[C@@H]1CCNC1)c1ccc(-c2noc(C(F)(F)F)n2)cc1` [Example 102, (R)—N-(pyrrolidin-3-yl)-4-(5-(trifluoromethyl)-1,2,4-oxadiazol-3-yl)benzenesulfonamide], the half-maximal inhibitory concentration (IC50) in experiment [1] is over 10 µM; in experiment [2], over 10 µM; in experiment [3], 3200 nM.
As to `CC(C)N(C)C[C@@H](C)NC(=O)c1ccc(-c2noc(C(F)(F)F)n2)cc1` [Example 138, (R)—N-(1-(isopropyl(methyl)amino)propan-2-yl)-4-(5-(trifluoromethyl)-1,2,4-oxadiazol-3-yl)benzamide], the IC50 in experiment [1] was over 10 µM; in experiment [2], over 10 µM; in experiment [3] it was 4.5 nM.
`O=C(NC1CCCNC1)c1ccc(-c2noc(C(F)(F)F)n2)cc1` (stereo not drawn) [Example 79, N-(piperidin-3-yl)-4-(5-(trifluoromethyl)-1,2,4-oxadiazol-3-yl)benzamide]: the IC50 in experiment [1] was over 10 µM; in experiment [2], over 10 µM; in experiment [3] it was 800 nM.
Consider `CCN(CC)C[C@H](NC(=O)c1ccc(-c2noc(C(F)(F)F)n2)cc1F)C(C)C` [Example 135, (R)—N-(1-(diethylamino)-3-methylbutan-2-yl)-2-fluoro-4-(5-(trifluoromethyl)-1,2,4-oxadiazol-3-yl)benzamide], for which the half-inhibitory concentration (IC50) in experiment [1] was over 10 µM; in experiment [2] it was over 10 µM; in experiment [3], 10 nM.
`O=C(Nc1ccnc(C(F)(F)F)c1)c1ccc(-c2noc(C(F)(F)F)n2)cc1` [Example 74, 4-(5-(Trifluoromethyl)-1,2,4-oxadiazol-3-yl)-N-(2-(trifluoromethyl)pyridin-4-yl)benzamide]: the concentration for half-maximal inhibition (IC50) in experiment [1] is 8.6 µM; in experiment [2], over 10 µM; in experiment [3], 190 nM.
Consider `CN(C)C[C@@H](Cc1ccccc1)NC(=O)c1ccc(-c2noc(C(F)(F)F)n2)cc1F` [Example 118, (R)—N-(1-(dimethylamino)-3-phenylpropan-2-yl)-2-fluoro-4-(5-(trifluoromethyl)-1,2,4-oxadiazol-3-yl)benzamide], for which the IC50 in experiment [1] was 4.7 µM; in experiment [2] it was over 10 µM; in experiment [3] it was 220 nM.
Regarding `CN1CCC[C@@H](NC(=O)c2ccc(-c3noc(C(F)(F)F)n3)cc2)C1` [Example 154, (R)—N-(1-methylpiperidin-3-yl)-4-(5-(trifluoromethyl)-1,2,4-oxadiazol-3-yl)benzamide], the half-inhibitory concentration (IC50) in experiment [1] is 7.2 µM; in experiment [2], over 10 µM; in experiment [3], 110 nM.
On to `COCCCNC(=O)c1ccc(-c2noc(C(F)(F)F)n2)cc1` [Example 21, N-(3-methoxyypropyl)-4-(5-(trifluoromethyl)-1,2,4-oxadiazol-3-yl)benzamide], for which the half-inhibitory concentration (IC50) is 5.7 µM in experiment [1], over 10 µM in experiment [2] and 730 nM in experiment [3].
Regarding `C[C@H](CN(C)Cc1ccccc1)NC(=O)c1ccc(-c2noc(C(F)(F)F)n2)cc1` [Example 156, (R)—N-(1-(benzyl(methyl)amino)propan-2-yl)-4-(5-(trifluoromethyl)-1,2,4-oxadiazol-3-yl)benzamide], the IC50 in experiment [1] turned out to be 2.3 µM; in experiment [2] it was 2.9 µM; in experiment [3], 0.85 nM.
Regarding `NC1CCCCC1NC(=O)c1ccc(-c2noc(C(F)(F)F)n2)cc1` (stereo not drawn) [Example 77, N-(2-aminocyclohexyl)-4-(5-(trifluoromethyl)-1,2,4-oxadiazol-3-yl)benzamide], the IC50 in experiment [1] is over 10 µM; in experiment [2], over 10 µM; in experiment [3], 350 nM.
On to `O=S(=O)(Nc1ccccc1Cl)c1ccc(-c2noc(C(F)(F)F)n2)cc1` [Example 104, N-(2-chlorophenyl)-4-(5-(trifluoromethyl)-1,2,4-oxadiazol-3-yl)benzenesulfonamide], for which the IC50 in experiment [1] is 0.77 µM; in experiment [2], over 10 µM; in experiment [3], 840 nM.
As to `CC(CO)NC(=O)c1ccc(-c2noc(C(F)(F)F)n2)cc1F` (stereo not drawn) [Example 91, 2-fluoro-N-(1-hydroxyypropan-2-yl)-4-(5-(trifluoromethyl)-1,2,4-oxadiazol-3-yl)benzamide], the IC50 in experiment [1] was 5.1 µM; in experiment [2], over 10 µM; in experiment [3], 500 nM.
For `CC(CN(C)C)N(C)C(=O)c1ccc(-c2noc(C(F)(F)F)n2)cc1F` (stereo not drawn) [Example 144, N-(1-(dimethylamino)propan-2-yl)-2-fluoro-N-methyl-4-(5-(trifluoromethyl)-1,2,4-oxadiazol-3-yl)benzamide], in that order: over 10 µM, over 10 µM and 180 nM.
For the compound `CN(C)C(=O)Cc1ccc(-c2noc(C(F)(F)F)n2)cc1` [Example 4, N,N-Dimethyl-2-[4-(5-trifluoromethyl-[1,2,4]oxadiazol-3-yl)-phenyl]-acetamide], the half-inhibitory concentration (IC50) in experiment [1] was 7.9 µM; in experiment [2], over 10 µM; in experiment [3], 620 nM.
The matching figures for `O=C(Nc1ccccc1)c1ccc(-c2noc(C(F)(F)F)n2)cc1` [Example 35, N-phenyl-4-(5-(trifluoromethyl)-1,2,4-oxadiazol-3-yl)benzamide]: over 10 µM, over 10 µM and 6700 nM.
For `CN(CCO)C(=O)c1ccc(-c2noc(C(F)(F)F)n2)cc1` [Example 15, N-(2-hydroxyethyl)-N-methyl-4-(5-(trifluoromethyl)-1,2,4-oxadiazol-3-yl)benzamide], the IC50 in experiment [1] was over 10 µM; in experiment [2], over 10 µM; in experiment [3], 990 nM.
Take `O=C(NC1CCNCC1)c1ccc(-c2noc(C(F)(F)F)n2)cc1` [Example 76, N-(piperidin-4-yl)-4-(5-(trifluoromethyl)-1,2,4-oxadiazol-3-yl)benzamide]: the IC50 in experiment [1] was 3.9 µM; in experiment [2] it was over 10 µM; in experiment [3] it was 150 nM.
For `CN1CCC(NC(=O)c2ccc(-c3noc(C(F)(F)F)n3)cc2)CC1` [Example 38, N-(1-methylpiperidin-4-yl)-4-(5-(trifluoromethyl)-1,2,4-oxadiazol-3-yl)benzamide], in that order: 3.9 µM, over 10 µM and 300 nM.
Consider `CN1C(C)(C)CC(NC(=O)c2ccc(-c3noc(C(F)(F)F)n3)cc2)CC1(C)C` [Example 65, N-(1,2,2,6,6-pentamethylpiperidin-4-yl)-4-(5-(trifluoromethyl)-1,2,4-oxadiazol-3-yl)benzamide], for which the half-maximal inhibitory concentration (IC50) in experiment [1] was 4.6 µM; in experiment [2], over 10 µM; in experiment [3], 240 nM.
`COCCNC(=O)c1ccc(-c2noc(C(F)(F)F)n2)cc1` [Example 16, N-(2-methoxyethyl)-4-(5-(trifluoromethyl)-1,2,4-oxadiazol-3-yl)benzamide]: the half-maximal inhibitory concentration (IC50) in experiment [1] is 6.8 µM; in experiment [2], over 10 µM; in experiment [3], 1400 nM.
Take `O=C(NCc1ccc(CN2CCOCC2)cc1)c1ccc(-c2noc(C(F)(F)F)n2)cc1` [Example 44, N-(4-(morpholinomethyl)benzyl)-4-(5-(trifluoromethyl)-1,2,4-oxadiazol-3-yl)benzamide]: the IC50 in experiment [1] was 5.7 µM; in experiment [2], over 10 µM; in experiment [3] it was 380 nM.
As to `CNC(=O)c1ccc(-c2noc(C(F)(F)F)n2)cc1` [Example 2, N-Methyl-4-(5-(trifluoromethyl)-1,2,4-oxadiazol-3-yl)benzamide], the 50% inhibitory concentration (IC50) in experiment [1] is 3.2 µM; in experiment [2], over 10 µM; in experiment [3] it was 530 nM.
The matching figures for `Cc1ccccc1NS(=O)(=O)c1ccc(-c2noc(C(F)(F)F)n2)cc1` [Example 103, N-o-tolyl-4-(5-trifluoromethyl-[1,2,4]oxadiazol-3-yl)-benzenesulfonamide]: 0.7 µM, over 10 µM and 80 nM.
Take `COCCN(C)C(=O)c1ccc(-c2noc(C(F)(F)F)n2)cc1` [Example 18, N-(2-methoxyethyl)-N-methyl-4-(5-(trifluoromethyl)-1,2,4-oxadiazol-3-yl)benzamide]: the figures for the half-maximal inhibitory concentration (IC50) in experiment [1], in experiment [2] and in experiment [3] were over 10 µM, over 10 µM and 390 nM, respectively.
For the compound `C[C@H](CN(C)C)NC(=O)c1ccc(-c2noc(C(F)(F)F)n2)cc1F` [Example 88, (R)—N-(1-(dimethylamino)propan-2-yl)-2-fluoro-4-(5-(trifluoromethyl)-1,2,4-oxadiazol-3-yl)benzamide], the IC50 in experiment [1] is 4.7 µM; in experiment [2], over 10 µM; in experiment [3], 12 nM.
For `CN(C)CCN(C)C(=O)c1ccc(-c2noc(C(F)(F)F)n2)cc1` [Example 37, N-(2-(dimethylamino)ethyl)-N-methyl-4-(5-(trifluoromethyl)-1,2,4-oxadiazol-3-yl)benzamide], the concentration for half-maximal inhibition (IC50) is over 10 µM in experiment [1], over 10 µM in experiment [2] and 340 nM in experiment [3].
